Patent US6740642B2, “Macrolides with antibacterial activity” (BAsilea Parmaceutica AG, priority 2000, dated 2004)
Converted amounts (≈) assume the structure as drawn.

Key:
E. coli ATCC25922 = assay: MIC, standard microdilution; type: cell-based; conditions: Escherichia coli, read-out: minimum inhibitory concentration (MIC)
From the text: (§1) The antibacterial activities of the compounds have been determined by standard microdilution technique (National Committee for Clinical Laboratory Standards. 1997. Methods for dilution antimicrobial susceptibility tests for bacteria that grow aerobically, 4th edition. Approved standard M7-A4. National Committee for Clinical Laboratory Standards, Wayne, Pa.).

[1] = test system: P. aeruginosa ATCC27853 (+Ery. 32 μg/ml); assay: MIC, standard microdilution; type: cell-based
From the text: as §1

St. pneumoniae SL199T = assay: MIC, standard microdilution; type: cell-based, Streptococcus pneumoniae; conditions: Streptococcus pneumoniae, read-out: minimum inhibitory concentration (MIC)
From the text: as §1

St. pneumoniae 1/1 = assay: MIC, standard microdilution; type: cell-based, Streptococcus pneumoniae; conditions: Streptococcus pneumoniae, read-out: minimum inhibitory concentration (MIC)
From the text: as §1

St. pneumoniae 1/4 = assay: MIC, standard microdilution; type: cell-based, Streptococcus pneumoniae; conditions: Streptococcus pneumoniae, read-out: minimum inhibitory concentration (MIC)
From the text: as §1

St. pneumoniae 12288 = assay: MIC, standard microdilution; type: cell-based, Streptococcus pneumoniae; conditions: Streptococcus pneumoniae, read-out: minimum inhibitory concentration (MIC)
From the text: as §1

H. influenzae H28 HEL = assay: MIC, agar dilution, HTM medium; type: cell-based, Haemophilus influenzae; conditions: Haemophilus influenzae, H28HEL, read-out: MIC
From the text: as §1, with “biological” for “antibacterial”, “of compounds of” for “of”, “present invention against Haemophilus influenzae” for “compounds”, “agar dilution method using HTM medium” for “microdilution technique”

H. influenzae 3640 = assay: MIC, agar dilution, HTM medium; type: cell-based, Haemophilus influenzae; conditions: Haemophilus influenzae, read-out: MIC
From the text: as §1, with “biological” for “antibacterial”, “of compounds of” for “of”, “present invention against Haemophilus influenzae” for “compounds”, “agar dilution method using HTM medium” for “microdilution technique”

H. influenzae H36 ODL = assay: MIC, agar dilution, HTM medium; type: cell-based, Haemophilus influenzae; conditions: Haemophilus influenzae, H36ODL, read-out: MIC
From the text: as §1, with “biological” for “antibacterial”, “of compounds of” for “of”, “present invention against Haemophilus influenzae” for “compounds”, “agar dilution method using HTM medium” for “microdilution technique”

H. influenzae H13 LAH = assay: MIC, agar dilution, HTM medium; type: cell-based, Haemophilus influenzae; conditions: Haemophilus influenzae, H13LAH, read-out: MIC
From the text: as §1, with “biological” for “antibacterial”, “of compounds of” for “of”, “present invention against Haemophilus influenzae” for “compounds”, “agar dilution method using HTM medium” for “microdilution technique”

H. influenzae 23145 = assay: MIC, agar dilution, HTM medium; type: cell-based, Haemophilus influenzae; conditions: Haemophilus influenzae, read-out: MIC
From the text: as §1, with “biological” for “antibacterial”, “of compounds of” for “of”, “present invention against Haemophilus influenzae” for “compounds”, “agar dilution method using HTM medium” for “microdilution technique”

H. influenzae 4139 = assay: MIC, agar dilution, HTM medium; type: cell-based, Haemophilus influenzae; conditions: Haemophilus influenzae, read-out: MIC
From the text: as §1, with “biological” for “antibacterial”, “of compounds of” for “of”, “present invention against Haemophilus influenzae” for “compounds”, “agar dilution method using HTM medium” for “microdilution technique”

H. influenzae Rd KW20 = assay: MIC, agar dilution, HTM medium; type: cell-based, Haemophilus influenzae; conditions: Haemophilus influenzae, RDKW20, read-out: MIC
From the text: as §1, with “biological” for “antibacterial”, “of compounds of” for “of”, “present invention against Haemophilus influenzae” for “compounds”, “agar dilution method using HTM medium” for “microdilution technique”

H. influenzae H20 HDL = assay: MIC, agar dilution, HTM medium; type: cell-based, Haemophilus influenzae; conditions: Haemophilus influenzae, H20HDL, read-out: MIC
From the text: as §1, with “biological” for “antibacterial”, “of compounds of” for “of”, “present invention against Haemophilus influenzae” for “compounds”, “agar dilution method using HTM medium” for “microdilution technique”

H. influenzae QK 12/87 = assay: MIC, agar dilution, HTM medium; type: cell-based, Haemophilus influenzae; conditions: Haemophilus influenzae, QK12/87, read-out: MIC
From the text: as §1, with “biological” for “antibacterial”, “of compounds of” for “of”, “present invention against Haemophilus influenzae” for “compounds”, “agar dilution method using HTM medium” for “microdilution technique”

H. influenzae 23369 = assay: MIC, agar dilution, HTM medium; type: cell-based, Haemophilus influenzae; conditions: Haemophilus influenzae, read-out: MIC
From the text: as §1, with “biological” for “antibacterial”, “of compounds of” for “of”, “present invention against Haemophilus influenzae” for “compounds”, “agar dilution method using HTM medium” for “microdilution technique”

H. influenzae ATCC 9334 = assay: MIC, agar dilution, HTM medium; type: cell-based, Haemophilus influenzae; conditions: Haemophilus influenzae, ATCC9334, read-out: MIC
From the text: as §1, with “biological” for “antibacterial”, “of compounds of” for “of”, “present invention against Haemophilus influenzae” for “compounds”, “agar dilution method using HTM medium” for “microdilution technique”

H. influenzae 3457 = assay: MIC, agar dilution, HTM medium; type: cell-based, Haemophilus influenzae; conditions: Haemophilus influenzae, read-out: MIC
From the text: as §1, with “biological” for “antibacterial”, “of compounds of” for “of”, “present invention against Haemophilus influenzae” for “compounds”, “agar dilution method using HTM medium” for “microdilution technique”

H. influenzae 3201 = assay: MIC, agar dilution, HTM medium; type: cell-based, Haemophilus influenzae; conditions: Haemophilus influenzae, read-out: MIC
From the text: as §1, with “biological” for “antibacterial”, “of compounds of” for “of”, “present invention against Haemophilus influenzae” for “compounds”, “agar dilution method using HTM medium” for “microdilution technique”

H. influenzae ATCC 49247 = assay: MIC, agar dilution, HTM medium; type: cell-based, Haemophilus influenzae; conditions: Haemophilus influenzae, ATCC49247, read-out: MIC
From the text: as §1, with “biological” for “antibacterial”, “of compounds of” for “of”, “present invention against Haemophilus influenzae” for “compounds”, “agar dilution method using HTM medium” for “microdilution technique”

H. influenzae QK 50 = assay: MIC, agar dilution, HTM medium; type: cell-based, Haemophilus influenzae; conditions: Haemophilus influenzae, QK50, read-out: MIC
From the text: as §1, with “biological” for “antibacterial”, “of compounds of” for “of”, “present invention against Haemophilus influenzae” for “compounds”, “agar dilution method using HTM medium” for “microdilution technique”

H. influenzae B 1501 = assay: MIC, agar dilution, HTM medium; type: cell-based, Haemophilus influenzae; conditions: Haemophilus influenzae, B1501, read-out: MIC
From the text: as §1, with “biological” for “antibacterial”, “of compounds of” for “of”, “present invention against Haemophilus influenzae” for “compounds”, “agar dilution method using HTM medium” for “microdilution technique”

H. influenzae Christy = assay: MIC, agar dilution, HTM medium; type: cell-based, Haemophilus influenzae; conditions: Haemophilus influenzae, read-out: MIC
From the text: as §1, with “biological” for “antibacterial”, “of compounds of” for “of”, “present invention against Haemophilus influenzae” for “compounds”, “agar dilution method using HTM medium” for “microdilution technique”

H. influenzae 12214 = assay: MIC, agar dilution, HTM medium; type: cell-based, Haemophilus influenzae; conditions: Haemophilus influenzae, read-out: MIC
From the text: as §1, with “biological” for “antibacterial”, “of compounds of” for “of”, “present invention against Haemophilus influenzae” for “compounds”, “agar dilution method using HTM medium” for “microdilution technique”

H. influenzae 11 = assay: MIC, agar dilution, HTM medium; type: cell-based, Haemophilus influenzae; conditions: Haemophilus influenzae, read-out: MIC
From the text: as §1, with “biological” for “antibacterial”, “of compounds of” for “of”, “present invention against Haemophilus influenzae” for “compounds”, “agar dilution method using HTM medium” for “microdilution technique”

H. influenzae 1 = assay: MIC, agar dilution, HTM medium; type: cell-based, Haemophilus influenzae; conditions: Haemophilus influenzae, read-out: MIC
From the text: as §1, with “biological” for “antibacterial”, “of compounds of” for “of”, “present invention against Haemophilus influenzae” for “compounds”, “agar dilution method using HTM medium” for “microdilution technique”

H. influenzae 2947 = assay: MIC, agar dilution, HTM medium; type: cell-based, Haemophilus influenzae; conditions: Haemophilus influenzae, read-out: MIC
From the text: as §1, with “biological” for “antibacterial”, “of compounds of” for “of”, “present invention against Haemophilus influenzae” for “compounds”, “agar dilution method using HTM medium” for “microdilution technique”

S. aureus ATCC29213 = assay: MIC, standard microdilution; type: cell-based, Staphylococcus aureus; conditions: Staphylococcus aureus, read-out: minimum inhibitory concentration (MIC)
From the text: as §1

S. aureus 1086 = assay: MIC, standard microdilution; type: cell-based, Staphylococcus aureus; conditions: Staphylococcus aureus, read-out: minimum inhibitory concentration (MIC)
From the text: as §1

S. aureus 745 = assay: MIC, standard microdilution; type: cell-based, Staphylococcus aureus; conditions: Staphylococcus aureus, read-out: minimum inhibitory concentration (MIC)
From the text: as §1

| Structure (SMILES) | MIC (E. coli ATCC25922) [µg/mL] | minimum inhibitory concentration (MIC) [1] [µg/mL] | MIC (St. pneumoniae SL199T) [µg/mL] | MIC (St. pneumoniae 1/1) [µg/mL] | MIC (St. pneumoniae 1/4) [µg/mL] | MIC (St. pneumoniae 12288) [µg/mL] | MIC (H. influenzae H28 HEL) [µg/mL] | MIC (H. influenzae 3640) [µg/mL] | MIC (H. influenzae H36 ODL) [µg/mL] | MIC (H. influenzae H13 LAH) [µg/mL] | MIC (H. influenzae 23145) [µg/mL] | MIC (H. influenzae 4139) [µg/mL] | MIC (H. influenzae Rd KW20) [µg/mL] | MIC (H. influenzae H20 HDL) [µg/mL] | MIC (H. influenzae QK 12/87) [µg/mL] | MIC (H. influenzae 23369) [µg/mL] | MIC (H. influenzae ATCC 9334) [µg/mL] | MIC (H. influenzae 3457) [µg/mL] | MIC (H. influenzae 3201) [µg/mL] | MIC (H. influenzae ATCC 49247) [µg/mL] | other results |
| --- | --- | --- | --- | --- | --- | --- | --- | --- | --- | --- | --- | --- | --- | --- | --- | --- | --- | --- | --- | --- | --- |
| CC[C@H]1OC(=O)[C@H](C)C(=O)[C@H](C)[C@@H](O[C@@H]2O[C@H](C)C[C@H](N(C)C)[C@H]2O)[C@](C)(OC)C[C@@H](C)C(=O)[C@H](C)[C@H]2N(CCCCn3cnc(-c4cccnc4)c3)C(=O)O[C@]12C [Telithromycin (4), telithromycin] | 16 (≈ 19.7 µM) | >16 | ≤ 0.12 | ≤ 0.12 | ≤ 0.12 | 0.25 (≈ 0.308 µM) | 2 (≈ 2.46 µM) | 2 (≈ 2.46 µM) | 4 (≈ 4.93 µM) | 2 (≈ 2.46 µM) | 4 (≈ 4.93 µM) | 2 (≈ 2.46 µM) | 4 (≈ 4.93 µM) | 2 (≈ 2.46 µM) | 1 (≈ 1.23 µM) | 4 (≈ 4.93 µM) | 2 (≈ 2.46 µM) | 0.25 (≈ 0.308 µM) | 4 (≈ 4.93 µM) | 4 (≈ 4.93 µM) | MIC (H. influenzae QK 50): 2 µg/mL (≈ 2.46 µM); MIC (H. influenzae B 1501): 2 µg/mL (≈ 2.46 µM); MIC (H. influenzae Christy): 4 µg/mL (≈ 4.93 µM); MIC (H. influenzae 12214): 4 µg/mL (≈ 4.93 µM); MIC (H. influenzae 11): 4 µg/mL (≈ 4.93 µM); MIC (H. influenzae 1): 4 µg/mL (≈ 4.93 µM); MIC (H. influenzae 2947): 4 µg/mL (≈ 4.93 µM); MIC (S. aureus ATCC29213): ≤ 0.12 µg/mL; MIC (S. aureus 1086): ≤ 0.12 µg/mL; MIC (S. aureus 745): > 64 µg/mL |
| CC[C@H]1OC(=O)[C@H](C)[C@@H](O[C@H]2C[C@@](C)(OC)[C@@H](O)[C@H](C)O2)[C@H](C)[C@@H](O[C@@H]2O[C@H](C)C[C@H](N(C)C)[C@H]2O)[C@](C)(OC)C[C@@H](C)C(=O)[C@H](C)[C@@H](O)[C@]1(C)O [Clarithromycin (2), clarithromycin] | > 16 | >16 | 16 (≈ 21.4 µM) | ≤ 0.12 | 16 (≈ 21.4 µM) | > 16 | 4 (≈ 5.35 µM) | 4 (≈ 5.35 µM) | 16 (≈ 21.4 µM) | 8 (≈ 10.7 µM) | 8 (≈ 10.7 µM) | 4 (≈ 5.35 µM) | 8 (≈ 10.7 µM) | 4 (≈ 5.35 µM) | 2 (≈ 2.67 µM) | 16 (≈ 21.4 µM) | 8 (≈ 10.7 µM) | 1 (≈ 1.34 µM) | 16 (≈ 21.4 µM) | 8 (≈ 10.7 µM) | MIC (H. influenzae QK 50): 8 µg/mL (≈ 10.7 µM); MIC (H. influenzae B 1501): 8 µg/mL (≈ 10.7 µM); MIC (H. influenzae Christy): 8 µg/mL (≈ 10.7 µM); MIC (H. influenzae 12214): 8 µg/mL (≈ 10.7 µM); MIC (H. influenzae 11): 16 µg/mL (≈ 21.4 µM); MIC (H. influenzae 1): 8 µg/mL (≈ 10.7 µM); MIC (H. influenzae 2947): 16 µg/mL (≈ 21.4 µM); MIC (S. aureus ATCC29213): 0.25 µg/mL (≈ 0.334 µM); MIC (S. aureus 1086): 16 µg/mL (≈ 21.4 µM); MIC (S. aureus 745): > 16 µg/mL |
